The values below come from US8987195B2 (priority 2012, dated 2015).

The IC50 is the concentration that gives 50% inhibition. One may read the EC50 as the concentration needed to bring the measured effect to its halfway point.

For assay [1], the target named is HCV NS3/4A protease genotype 1b (Hepatitis C virus genotype 1b, UniProt P26663). Put plainly: HCV NS3/4A protease time-resolved fluorescence (TRF) assay, Ki against genotype 1b. In kind it is biochemical. In a few lines:
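Ki values come from IC50 fits corrected for substrate concentration and KM. The time-resolved fluorescence protease reaction used 25 nM peptide substrate, 2.5 h, room temperature, pH 7.5 HEPES buffer, after 30 min enzyme–inhibitor preincubation.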

The test system of assay [2] is HCV genotype 1b replicon. Put plainly: HCV replicon assay, genotype 1b replicon EC50. In kind it is cell-based, Hepatitis C virus. Particulars: read-out: EC50 [gt-1b]. Put shortly: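 Stable neomycin phosphotransferase-encoding replicon cell lines, kept under G418 selection beforehand, were plated with a compound dilution series without G418 and incubated 24-48 hours. Replicon RNA was then quantified, or luciferase activity read. EC50 was calculated as percent of DMSO control by four-parameter fit.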
Background: Replicon systems follow genome replication, usually without infectious particles.

The mark [3] stands for this setting: IC50 [gt-1b] (nM), NS3/4A genotype 1b, enzyme 0.2 nM.
[4] abbreviates: Hepatitis C virus, genotype 1b replicon.
Setting [5] is: IC50 [gt-1b], NS3/4A protease TRF assay, genotype 1b enzyme 0.2 nM.
Where [6] appears, read: Hepatitis C virus, HCV replicon, genotype 1b.
Where [7] appears, read: IC50 [gt-1b], NS3/4A protease TRF assay, genotype 1b enzyme 0.2 nM, K+ salt.
Where [8] appears, read: Hepatitis C virus, HCV replicon, genotype 1b, K+ salt.

Read-outs that look alike come from different tables or passages of the source.

Sequence of HCV NS3/4A protease genotype 1b (P26663 1027-1657): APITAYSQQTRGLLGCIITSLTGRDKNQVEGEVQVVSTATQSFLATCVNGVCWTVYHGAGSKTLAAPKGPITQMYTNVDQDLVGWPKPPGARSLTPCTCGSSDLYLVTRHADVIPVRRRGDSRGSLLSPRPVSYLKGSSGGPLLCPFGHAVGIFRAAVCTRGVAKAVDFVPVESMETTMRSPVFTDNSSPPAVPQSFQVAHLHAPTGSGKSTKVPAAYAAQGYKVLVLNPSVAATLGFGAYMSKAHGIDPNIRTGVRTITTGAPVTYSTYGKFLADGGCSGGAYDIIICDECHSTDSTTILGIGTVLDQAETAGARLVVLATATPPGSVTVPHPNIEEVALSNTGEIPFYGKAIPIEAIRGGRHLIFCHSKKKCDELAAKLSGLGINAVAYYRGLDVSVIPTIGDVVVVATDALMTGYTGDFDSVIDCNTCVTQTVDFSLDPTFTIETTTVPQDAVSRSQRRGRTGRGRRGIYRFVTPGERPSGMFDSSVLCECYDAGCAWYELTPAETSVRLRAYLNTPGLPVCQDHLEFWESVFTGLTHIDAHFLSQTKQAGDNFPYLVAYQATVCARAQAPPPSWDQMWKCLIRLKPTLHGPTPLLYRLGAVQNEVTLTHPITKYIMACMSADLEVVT
Sequence of HCV NS3/4A protease genotype 1b (P26663 1658-1711): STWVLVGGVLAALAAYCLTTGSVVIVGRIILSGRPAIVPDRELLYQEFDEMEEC

As for `COc1ccc2nc(C)c3c(c2c1)C(F)(F)C[C@]1(C[C@H]2C(=O)N[C@]4(C(=O)NS(=O)(=O)C5(C)CC5)C[C@H]4/C=C\CCCCC[C@H](NC(=O)OC4CCCC4)C(=O)N2C1)O3` [Example 260, cyclopentyl [(2S,6S,12Z,13aS,14aR,16aS)-1′,1′-difluoro-9′-methoxy-5′-methyl-14a-{[(1-methylcyclopropyl)sulfonyl]carbamoyl}-5,16-dioxo-1,1′,2′,5,6,7,8,9,10,11,13a,14,14a,15,16,16a-hexadecahydrospiro[cyclopropa[e]pyrrolo[1,2-a][1,4]diazacyclopentadecine-2,3′-pyrano[2,3-c]quinolin]-6-yl]carbamate], in assay [1] (setting [3]), the IC50 was 0.006 nM. Besides, the EC50 in assay [2] (setting [4]) amounted to 5.22 nM.

Regarding `Cc1nc2ccc(C#N)cc2c2c1O[C@]1(CC2)C[C@H]2C(=O)N[C@]3(C(=O)NS(=O)(=O)C4(C)CC4)C[C@H]3/C=C\CCCCC[C@H](NC(=O)OC(C)(C)C)C(=O)N2C1` [Example 59, tert-Butyl ((2R,6S,13aS,14aR,16aS,Z)-9′-cyano-5′-methyl-14a-(((1-methylcyclopropyl)sulfonyl)carbamoyl)-5,16-dioxo-1′,2′,3,5,6,7,8,9,10,11,13a,14,14a,15,16,16a-hexadecahydro-1H-spiro[cyclopropa[e]pyrrolo[1,2-a][1,4]diazacyclopentadecine-2,3′-pyrano[2,3-c]quinolin]-6-yl)carbamate], the IC50 in assay [1] (setting [3]) worked out at 0.019 nM. Moreover, in assay [2] (setting [4]), the EC50 was determined as 3.45 nM.

As to `COCC1(S(=O)(=O)NC(=O)[C@@]23C[C@H]2/C=C\CCCCC[C@H](NC(=O)OCC(F)F)C(=O)N2C[C@@]4(CCc5c(c(C(F)(F)F)nc6ccc(OC)cc56)O4)C[C@H]2C(=O)N3)CC1` [Example 497, 2,2-difluoroethyl [(2R,6S,12Z,13aS,14aR,16aS)-9′-methoxy-14a-({[1-(methoxymethyl)cyclopropyl]sulfonyl}carbamoyl)-5,16-dioxo-5′-(trifluoromethyl)-1,1′,2′,5,6,7,8,9,10,11,13a,14,14a,15,16,16a-hexadecahydrospiro[cyclopropa[e]pyrrolo[1,2-a][1,4]diazacyclopentadecine-2,3′-pyrano[2,3-c]quinolin]-6-yl]carbamate], in assay [1] (setting [5]), it took 0.014 nM to reach half-maximal inhibition (IC50). For the same compound, the EC50 in assay [2] (setting [6]) is 1.94 nM.

In turn, `Cc1nc2ccccc2c2c1O[C@]1(CC2)C[C@H]2C(=O)N[C@]3(C(=O)NS(=O)(=O)C4(C)CC4)C[C@H]3/C=C\CCCCC[C@H](Nc3ccccn3)C(=O)N2C1` [Example 353, (2R,6S,12Z,13aS,14aR,16aS)-5′-methyl-N-[(1-methylcyclopropyl)sulfonyl]-5,16-dioxo-6-(pyridin-2-ylamino)-1,1′,2′,6,7,8,9,10,11,13a,14,15,16,16a-tetradecahydrospiro[cyclopropa[e]pyrrolo[1,2-a][1,4]diazacyclopentadecine-2,3′-pyrano[2,3-c]quinoline]-14a(5R)-carboxamide] had an IC50 in assay [1] (setting [3]) of 0.111 nM. Also, the EC50 in assay [2] (setting [4]) was 39.5 nM.

Take `COC(=O)N[C@H]1CCCCC/C=C\[C@@H]2C[C@@]2(C(=O)NS(=O)(=O)C2(C)CC2)NC(=O)[C@@H]2C[C@]3(CCc4c(c(C5CC5)nc5cc(OC)ccc45)O3)CN2C1=O` [Example 139, methyl [(2R,6S,12Z,13aS,14aR,16aS)-5′-cyclopropyl-8′-methoxy-14a-{[(1-methylcyclopropyl)sulfonyl]carbamoyl}-5,16-dioxo-1,1′,2′,5,6,7,8,9,10,11,13a,14,14a,15,16,16a-hexadecahydrospiro[cyclopropa[e]pyrrolo[1,2-a][1,4]diazacyclopentadecine-2,3′-pyrano[2,3-c]quinolin]-6-yl]carbamate]: in assay [1] (setting [3]), the IC50 stood at 0.127 nM. In addition, in assay [2] (setting [4]), the EC50 came to 8.09 nM.

In assay [1] (setting [5]), `COc1cccc(N[C@H]2CCCCC/C=C\[C@@H]3C[C@@]3(C(=O)NS(=O)(=O)C3(C)CC3)NC(=O)[C@@H]3C[C@]4(CCc5c(c(C)nc6ccccc56)O4)CN3C2=O)n1` [Example 415, (2R,6S,12Z,13aS,14aR,16aS)-6-[(6-methoxypyridin-2-yl)amino]-5′-methyl-N-[(1-methylcyclopropyl)sulfonyl]-5,16-dioxo-1,1′,2′,6,7,8,9,10,11,13a,14,15,16,16a-tetradecahydrospiro[cyclopropa[e]pyrrolo[1,2-a][1,4]diazacyclopentadecine-2,3′-pyrano[2,3-c]quinoline]-14a(5H)-carboxamide] registered an IC50 of 0.118 nM. Further, the 50% effective concentration (EC50) in assay [2] (setting [6]) came to 16.3 nM.

Compound `CC1(C)CCCC1OC(=O)N[C@H]1CCCCC/C=C\[C@@H]2C[C@@]2(C(=O)NS(=O)(=O)C2(C)CC2)NC(=O)[C@@H]2C[C@]3(CCc4c(c(C5CC5)nc5c(F)cccc45)O3)CN2C1=O` (stereo partly drawn) [Example 187, 2,2-dimethylcyclopentyl [(2R,6S,12Z,13aS,14aR,16aS)-5′-cyclopropyl-7′-fluoro-14a-{[(1-methylcyclopropyl)sulfonyl]carbamoyl}-5,16-dioxo-1,1′,2′,5,6,7,8,9,10,11,13a,14,14a,15,16,16a-hexadecahydrospiro[cyclopropa[e]pyrrolo[1,2-a][1,4]diazacyclopentadecine-2,3′-pyrano[2,3-c]quinolin]-6-yl]carbamate] registered an IC50 in assay [1] (setting [3]) of 0.023 nM. Besides, the 50% effective concentration (EC50) in assay [2] (setting [4]) came out at 8.33 nM.

Consider `CCCOC(=O)N[C@H]1CCCCC/C=C\[C@@H]2C[C@@]2(C(=O)NS(=O)(=O)C2(C)CC2)NC(=O)[C@@H]2C[C@]3(CCc4c(c(C5CC5)nc5ccc(OC)cc45)O3)CN2C1=O` [Example 437, propyl [(2R,6S,12Z,13aS,14aR,16aS)-5′-cyclopropyl-9′-methoxy-14a-{[(1-methylcyclopropyl)sulfonyl]carbamoyl}-5,16-dioxo-1,1′,2′,5,6,7,8,9,10,11,13a,14,14a,15,16,16a-hexadecahydrospiro[cyclopropa[e]pyrrolo[1,2-a][1,4]diazacyclopentadecine-2,3′-pyrano[2,3-c]quinolin]-6-yl]carbamate], for which the IC50 in assay [1] (setting [7]) amounted to 0.016 nM. For the same compound, the EC50 in assay [2] (setting [8]) worked out at 1 nM.

Take `CCc1ccc2nc(C)c3c(c2c1)C(F)C[C@]1(C[C@H]2C(=O)N[C@]4(C(=O)NS(=O)(=O)C5(C)CC5)C[C@H]4/C=C\CCCCC[C@H](NC(=O)OC(C)(C)C)C(=O)N2C1)O3` (single isomer, unassigned) [Example 316]: in assay [1] (setting [3]), the concentration for half-maximal inhibition (IC50) came to 0.008 nM. Also, the EC50 in assay [2] (genotype 1b replicon) amounted to 2.63 nM.

For the compound `Cc1nc2ccccc2c2c1O[C@]1(CC2)C[C@H]2C(=O)N[C@]3(C(=O)NS(=O)(=O)C4(C)CC4)C[C@H]3/C=C\CCCCC[C@H](NC(=O)OC(C)C)C(=O)N2C1` [Example 105, propan-2-yl [(2R,6S,12Z,13aS,14aR,16aS)-5′-methyl-14a-{[(1-methylcyclopropyl)sulfonyl]carbamoyl}-5,16-dioxo-1,1′,2′,5,6,7,8,9,10,11,13a,14,14a,15,16,16a-hexadecahydrospiro[cyclopropa[e]pyrrolo[1,2-a][1,4]diazacyclopentadecine-2,3′-pyrano[2,3-c]quinolin]-6-yl]carbamate], in assay [1] (setting [3]), the IC50 turned out to be 0.013 nM. For the same compound, in assay [2] (setting [4]), the EC50 was found to be 1.42 nM.

Take `Cc1nc2ccc(Cl)cc2c2c1O[C@]1(CC2)C[C@H]2C(=O)N[C@]3(C(=O)NS(=O)(=O)C4(C)CC4)C[C@H]3/C=C\CCCCC[C@H](NC(=O)OCC(C)(C)C)C(=O)N2C1` [Example 40, Neopentyl((2R,6S,13aS,14aR,16aS,Z)-9′-chloro-5′-methyl-14a-(((1-methylcyclopropyl)sulfonyl)carbamoyl)-5,16-dioxo-1′,2′,3,5,6,7,8,9,10,11,13a,14,14a,15,16,16a-hexadecahydro-1H-spiro[cyclopropa[e]pyrrolo[1,2-a][1,4]diazacyclopentadecine-2,3′-pyrano[2,3-c]quinolin]-6-yl)carbamate]: in assay [1] (IC50 [gt-1b] (nM), NS3/4A genotype 1b, enzyme 0.2 nM, K+ salt), the IC50 worked out at 0.005 nM. The EC50 in assay [2] (Hepatitis C virus, genotype 1b replicon, K+ salt) was 5.33 nM.

With `COc1ccc2nc(C3CC3)c3c(c2c1)CC[C@]1(C[C@H]2C(=O)N[C@]4(C(=O)NS(=O)(=O)C5(C)CC5)C[C@H]4/C=C\CCCCC[C@H](NC(=O)O[C@@H](C)C(C)C)C(=O)N2C1)O3` [Example 412, (2S)-3-methylbutan-2-yl [(2R,6S,12Z,13aS,14aR,16aS)-5′-cyclopropyl-9′-methoxy-14a-{[(1-methylcyclopropyl)sulfonyl]carbamoyl}-5,16-dioxo-1,1′,2′,5,6,7,8,9,10,11,13a,14,14a,15,16,16a-hexadecahydrospiro[cyclopropa[e]pyrrolo[1,2-a][1,4]diazacyclopentadecine-2,3′-pyrano[2,3-c]quinolin]-6-yl]carbamate], the IC50 in assay [1] (setting [7]) is 0.038 nM. For the same compound, in assay [2] (setting [8]), the EC50 was determined as 1.42 nM.

The compound `COc1ccc2nc(C3CC3)c3c(c2c1)CC[C@]1(C[C@H]2C(=O)N[C@]4(C(=O)NS(=O)(=O)C5(C)CC5)C[C@H]4/C=C\CCCCC[C@H](NC(=O)OC(C)C)C(=O)N2C1)O3` [Example 94, propan-2-yl [(2R,6S,12Z,13aS,14aR,16aS)-5′-cyclopropyl-9′-methoxy-14a-{[(1-methylcyclopropyl)sulfonyl]carbamoyl}-5,16-dioxo-1,1′,2′,5,6,7,8,9,10,11,13a,14,14a,15,16,16a-hexadecahydrospiro[cyclopropa[e]pyrrolo[1,2-a][1,4]diazacyclopentadecine-2,3′-pyrano[2,3-c]quinolin]-6-yl]carbamate] gave an IC50 in assay [1] (setting [3]) of 0.003 nM. In assay [2] (setting [4]), the EC50 worked out at 0.61 nM.
